Assay results as given in patent publication US20160282364A1, “ASSAY FOR INSULIN-DEGRADING ENZYME (IDE) INHIBITORS” (PRESIDENT AND FELLOWS OF HARVARD COLLEGE, priority 2013, published 2016).
Entries after “also recorded” stand apart in the source; their conditions may differ.

Experiments:
[1] = test system: mice; assay: Blood pressure and heart rate in mouse CGRP model; type: in vivo
Protocol: CGRP is a potent microvascular vasodilator widely expressed in the central and peripheral nervous systems of vertebrates. Administration of CGRP resulting in supraphysiological plasma levels of CGRP results in temporary vasodilation, hypotension, and an increased heart rate.
Nine mice received 250 ng CGRP intravenously (t=0). […] The other five received a control injection of vehicle only.
In addition,the lower panel of FIG. 19 demonstates that the increase in heart rate observed initially after CGRP administration is similar in both groups, but that the heart rate remains […] and the heart change rate is decreased in 6bK-administered mice as compared to controls.

[2] = test system: lean and DIO C57BL/6J mice; assay: i.p. injected glucose tolerance test (IPGTT); type: in vivo, mouse
Protocol: Wild-type lean C57BL/6J and diet-induced obese (DIO) C57BL/6J age-matched male mice were purchased from Jackson Laboratories, and used at ages 14-16, and 24-26 weeks respectively (>20 weeks of high-fat diet for the DIO mice). GCGR^/ mice were bred from heterozygous mice and used between 11 and 17 weeks. […] Blood glucose was measured from tail nicks using AccuCheck (Aviva) meters.
In vivo studies, general information. Wild-type C57BL/6J and diet-induced obese (DIO) C57BL/6J age-matched male adult mice were purchased from Jackson Laboratories. The age range was 13 to 15 weeks for lean mice, and 24 to 26 weeks for DIO mice. All animals were individually housed on a 14-h light, 10-h dark schedule at the Biology Research Infrastructure (BRI), Harvard University. Cage enrichment included cotton bedding and a red plastic hut. Water and food were available ad libitum, consisting respectively of normal chow (Prolab® RHM 3000) or high-fat diet (60 kcal % fat, D12492, Research Diets Inc.). All animal care and experimental procedures were in accordance with the standing committee on the Use of Animals in Research and Teaching at Harvard University, the guidelines and rules established by the Faculty of Arts and Sciences' Institutional Animal Care and Use Committee (IACUC), and the National Institutes of Health Guidelines for the Humane Treatment of Laboratory Animals. Glucagon-receptor knock-out (GCGR^−/−) mice were housed with a 14-h light and 10-h dark schedule and treated in accordance with the guidelines and rules approved by the IACUC at Albert Einstein College of Medicine, NY. Power analysis to determine animal cohort numbers was based on preliminary results and literature precedent, usually requiring between 5 and 8 animals per group. Animals were only excluded from the cohorts in cases of chronic weakness, which occurs among GCGR −/− mice, or when we identified occasional DIO mice with an outlier diabetic phenotype (>200 mg/dL fasting blood glucose). Age- and weight-matched mice were randomized to each treatment group. Double-blinding was not feasible.
Glucose tolerance tests GTT and blood glucose measurements. Prior to a glucose challenge, the animals were fasted for 14 h (8 pm to 10 am, during the dark cycle) while individually housed in a clean cage with inedible wood-chip as a floor substrate, cotton bedding and a red plastic hut. Inhibitor, vehicle or control compounds were administered by a single intraperitoneal (i.p.) injection 30 min prior to the glucose challenge. Dextrose was formulated in sterile saline (3 g in 10 mL total), and the dose was adjusted by fasted body weight. For oGTT, 3.0 g/kg dextrose was administered by gavage at a dose of 10 mL/kg, and for ipGTT, 1.5 g/kg dextrose injected at a dose of 5 mL/kg. Blood glucose was measured using AccuCheck® meters (Aviva) from blood droplets obtained from a small nick at the tip of the tail, at timepoints −45, 0, 15, 30, 45, 60, 90 and 120 min with reference to the time of glucose injection. The area of the blood glucose response profile curve corresponding to each animal was calculated by the trapezoid method^17, using as reference each individual baseline blood glucose measurement prior to glucose administration (t=0). […] Values are reported as mean±S.E.M. Statistics were performed using a two-tail Student's t-test, and significance levels shown in the figures are *p<0.05 versus vehicle control group or **p<0.01 versus vehicle control group.

[3] = Tissue distribution by stable isotope dilution LC-MS; type: in vivo, mouse; conditions: mice, 80 mg/kg i.p.
Protocol: Stable isotope dilution LC-MS, pharmacokinetics, and tissue distribution measurements. […] Tissue samples ( 100 mg) fromb 6K-treated mice and vehicle controls were weighed and disrupted in Dounce homogenizers with PBS buffer (0.5 mL/100 mg sample), supplemented with 5 μM heavy-6bK and protease inhibitor cocktail (1 tablet/50 mL PBS, Roche diagnostics). The lysate was incubated on ice for 30 min, sonicated 5 min and centrifuged at 13,000 g for 5 min. The bulk of supernatant proteins were precipitated by denaturation at 95° C. for 5 min, removed by centrifugation.

[4] = Liver microsome stability (1 h incubation); type: in vitro ADME; conditions: after 1 h

## NCCCC[C@@H]1NC(=O)/C=C/C(=O)N[C@H](C(N)=O)CCCCNC(=O)[C@@H](Cc2ccc(C(=O)c3ccccc3)cc2)NC(=O)[C@H](CC2CCCCC2)NC1=O [Compound 6bK]
[1]; 1 mg 6bK i.p. 30 min before 250 ng CGRP i.v.
  return of blood pressure to baseline / duration of CGRP-induced hypotension: slower kinetics; also recorded: increases the duration
[1]; mice, 1 mg 6bK i.p., vs vehicle
  baseline blood pressure: reduced; also recorded: lowered
[1]; mice, 1 mg 6bK, vs control
  baseline heart rate: reduced
[2]; DIO mice, 40 mg/kg
  IPGTT response at low dose: too low to achieve a consistent effect
[2]; DIO mice, 60 mg/kg, lower over initial 30 min, hyperglycemic rebound from 1 h
  glucose response profile in IPGTT: biphasic response
[2]; DIO mice, 90 mg/kg
  IPGTT response at high dose: respond similarly to 60 mg/kg
[2]; i.p., 80 mg/kg lean (25 g), 60 mg/kg DIO (35-45 g)
  effective dose: ~2 mg/mouse
[2]; lean and DIO mice, glucose 1.5 g/kg i.p., vs vehicle
  glucose tolerance after i.p. glucose injection: impaired glucose tolerance
[3]
  biodistribution into plasma, liver, kidney, and pancreatic tissues: prompt biodistribution
[3]; 10-fold concentrated samples
  detection in the brain: did not detect
[4]
  remaining after incubation with liver microsome preparations: 78%
